Data: US10799501B2, “Combination of an inhibitor of PARP with an inhibitor of GSK-3 or DOT1L” (King's College London, priority 2015, dated 2020)

Assays:
THP1 (MLL-AF9) [1] = assay: Humanized xenograft: NSG mice transplanted with THP1 cells, Olaparib treatment; type: in vivo, mouse
Method: We established humanized models of AML1-ETO and PML-RARα leukemia in sub-lethally irradiated NOD/SCID/IL2Rg−/−(NSG, 1 dose 200 RADs) by transplanting 2×10^6 Kasumi (intra-femoral, IF) and 1×10^5 NB4-LR2 or 1×10^5 THP1 (intravenous, IV) cells. The day after the transplantation, mice were split into two groups and given intra-peritoneal injections of vehicle (10% HBC) or Olaparib (25 mg/kg in 10% HBC) daily for 2-4 weeks. The maximum tolerable dose was calculated by in vivo dose-response experiments. Mice were monitored daily until they developed symptoms of leukemia, when they were culled and bone marrow, spleen and liver harvested and analyzed by FACS. The engraftment of human donor cells was defined as human CD45/CD33 double positive by FACS.

THP1 (MLL-AF9) [2] = assay: In vitro drug treatment of human leukemic cell line THP1; type: cell-based
Method: NB4-LR2 and THP1 cell lines (kindly provided by Dr Arthur Zelent and Professor Mel Greaves respectively) were cultured in RPMI (Invitrogen) supplemented with 10% selected FBS (R10), 2 mM L-Glutamine. Kasumi cell line (kindly provided by Dr Olaf Heidenreich) was cultured in RPMI-Hepes modified (Sigma) supplemented with 20% selected FBS and 2 mM L-[…]). Cell lines were validated by qPCR for their respective oncogenes. NIH3T3 and GP2 cell line was cultured in DMEM (Invitrogen) supplemented with 10% selected FBS and 2 mM L-Glutamine. Human primary AML cells were cultured in IMEM (Invitrogen) supplemented with […], 2 mM L-Glutamine, 10 ng/mL each of human cytokines, IL3, IL6, SCF, FLT3 ligand, and TPO. Cells were kept at 37° C. and 5% CO2. Use of human primary cells was approved by King's College London committee and consents of the patients were obtained. […] Colonies were scored 6-7 days after plating. For other in vitro studies, mouse leukemic cells and primary AML cell lines were subjected to continuously Olaparib (1 μM) or LiCl (8 mM) treatment in liquid culture for whole duration as indicated in the figures or figure legends. For human leukemic cell lines, experiments were performed as described above with 5 μM Olaparib. For each assay 1×10^5 cells were collected, washed in PBS and re-suspended in Annexin V binding solution (25 mM Hepes, 140 mM KCl, 2.5 mM CaCl2 pH 7.2). After centrifugation at 500 g for five minutes the cells were incubated with the Annexin V Binding solution containing 0.25 ug/ml mouse anti Annexin V-FITC antibody (Biolegend 640906) and 1 ug/ml propidium iodide in the dark for 30 minutes at 4° C. Samples were then washed in PBS analysed at the FACS LSRII (BD Biosciences Pharmingen) with FACS Diva. Cells were cytospun onto a glass slide at 400 g for 5 minutes and then fixed for 10 minutes with 2% formaldehyde/0.2% glutaraldehyde (Sigma Aldrich). […] Cells were counted in at least 5 fields for each slide, for a total of over 100 cells. The percentage of senescent cells was calculated by the percentage of the number of blue cell in the field.

[3] = system: PML-RARα primary human leukemia cells; assay: In vitro treatment of primary AML patient cells carrying PML-RARα (APL); type: cell-based
Method: NB4-LR2 and THP1 cell lines (kindly provided by Dr Arthur Zelent and Professor Mel Greaves respectively) were cultured in RPMI (Invitrogen) supplemented with 10% selected FBS (R10), 2 mM L-Glutamine. Kasumi cell line (kindly provided by Dr Olaf Heidenreich) was cultured in RPMI-Hepes modified (Sigma) supplemented with 20% selected FBS and 2 mM L-[…]). Cell lines were validated by qPCR for their respective oncogenes. NIH3T3 and GP2 cell line was cultured in DMEM (Invitrogen) supplemented with 10% selected FBS and 2 mM L-Glutamine. Human primary AML cells were cultured in IMEM (Invitrogen) supplemented with […], 2 mM L-Glutamine, 10 ng/mL each of human cytokines, IL3, IL6, SCF, FLT3 ligand, and TPO. Cells were kept at 37° C. and 5% CO2. Use of human primary cells was approved by King's College London committee and consents of the patients were obtained. […] Colonies were scored 6-7 days after plating. […] Cells were counted in at least 5 fields for each slide, for a total of over 100 cells per condition. […] Cells were then washed in PBS and the differentiated cells were indicated by the deposition of dark blue insoluble formazan (NBT positive cells) and the percentage of differentiated cells were counted under microscopy. At least 200 cells were counted in most of the cases.

ovarian cancer = settings: untargeted population; cited from earlier work
[4] = NSG mice succumbed with THP1 driven disease, Olaparib 25 mg/kg i.p. daily

Compound: O=C(c1cc(Cc2n[nH]c(=O)c3ccccc23)ccc1F)N1CCN(C(=O)C2CC2)CC1 [Olaparib, 4-[(3-[(4-cyclopropylcarbonyl)piperazin-4-yl]carbonyl)-4-fluorophenyl]methyl(2H)-phthalazin-1-one]
- BM Engraftment (%) (THP1 (MLL-AF9) [1]; [4]): 30.7 ± 33.27%
- Disease Latency (days; median) (THP1 (MLL-AF9) [1]; [4]): 81 days
- Hematopoietic Liver Engraftment (%) (THP1 (MLL-AF9) [1]; [4]): 27.81 ± 31.79%
- Hematopoietic Spleen Engraftment (%) (THP1 (MLL-AF9) [1]; [4]): 8.53 ± 6.946%
- Liver (THP1 (MLL-AF9) [1]; [4]): 1.31 ± 0.153 g
- Spleen (THP1 (MLL-AF9) [1]; [4]): 0.0822 ± 0.0301 g
- survival of xenograft model transplanted with human THP1 cells (THP1 (MLL-AF9) [1]; THP1 cells carrying MLL-AF9): no effect on the survival
- growth (relative proliferation) and differentiation (THP1 (MLL-AF9) [2]; counted on day 5 by trypan blue exclusion): ineffective
- colony forming ability (THP1 (MLL-AF9) [2]; methylcellulose 7 days, 5 μM Olaparib): did not affect
- differentiation of primary AML cells ([3]; 1 μM Olaparib for 5 days): increased differentiation
- in vitro PARPi response (sensitivity) ([3]; primary patient cells treated 5 days): highly sensitive
- overall survival benefit compared to chemotherapy (ovarian cancer): failed to show overall survival benefit
